One assay deals with cancer (solid tumors). The following applies: with array of light emitting diodes; preclinical and human clinical trials in United States, Europe and Japan; cited from earlier work.
Assay [1] has as its system superficial venous anatomy of the ears. Nature of the assay: Photodynamic treatment of superficial venous anatomy of rabbit ears (IV LS11, then 664 nm LED light). Format: in vivo, New Zealand White Rabbits. How it is done: The superficial venous anatomy of the ears of New Zealand White Rabbits were treated by injecting light-reactive agent LS11 (Talaporfin Sodium) in doses selected to approximate a human dose, and thereafter exposing the superficial venous anatomy to light at a wavelength of 664 nm in dose periods ranging from 8 to 12 minutes.
A total of twelve rabbits were treated. Each rabbit (weighing approximately six pounds) was intravaneously sedated for approximately 25 minutes using Ketamine and secured to a treatment table before being treated. The ears were shaved clean of hair and skin prepped with alcohol.
LS11 (Talaporfin Sodium, from Light Sciences Oncology, Inc.) was selected as the light reactive agent 14. […] Different doses of LS11 (at a concentration of 0.125 mg per cc) were administered to different rabbits, at 0.25 mg/kg; 0.50 mg/kg; 1.0 mg/kg; and 1.5 mg/kg, respectively. The doses were selected to approximate a human dose of 3 mg/ml to 10 mg/ml (a dose of 0.2 to 0.5 mg/kg).
The doses were administered to each rabbit's ear intravenously in a slow bolus method over a period of 5 minutes. After a pre-selected delay of ten minutes following the injection, a light-applying carrier 60 of the type shown in FIG. 18A (with a linear array of three LED's) was laid on the head of the rabbit over the treated ear, which was held tight against the carrier (see FIG. 20). […]

On to `C=Cc1c(C)c2cc3nc(c(CC(=O)N[C@@H](CC(=O)O)C(=O)O)c4[nH]c(cc5nc(cc1[nH]2)C(C)=C5CC)c(C)c4C(=O)O)[C@@H](CCC(=O)O)[C@@H]3C` [LS11, mono-L-aspartyl chlorine e6], for which, in the assay with cancer (solid tumors), the “Efficacy in treating cancer (solid tumors)” value is recorded as “has shown efficacy in treating cancer (solid tumors)”. Moreover, the “Visible alterations in the superficial venous anatomy (shrinkage of veins) in treated ear” value in assay [1] (IV 0.25, 0.50, 1.0 or 1.5 mg/kg, 664 nm light for 8 to 12 minutes, other ear as control) is reported as “Visible alterations in the superficial venous anatomy due to shrinkage of veins in the treated regions were observed”. For the same molecule, the “Alteration of superficial venous anatomy, treated ear vs control ear (FIG. 21)” value in assay [1] (LS11 dose 1.5 mg/kg IV, light dose 8 min of 664 nm light) was “visibly alter the superficial venous anatomy, due to shrinkage of veins in the targeted region”.

Values taken from patent US8470010B2, “Systems and methods for treating superficial venous malformations like spider veins” (Green Medical, Inc., priority 2006, dated 2013).
